Test results from US20170000749A1, “Methods for Treating Cognitive Disorders Using Inhibitors of Histone Deacetylase” (Forum Pharmaceuticals, Inc., priority 2008, published 2017).

The compounds below were run on HDAC activity in primary mouse cortical cultures (assay: Whole-Cell Histone Deacetylase (HDAC) Inhibition Assay in Primary Mouse Cortical Cultures). Conditions: whole-cell (WC), mouse cortical neurons; Table 9; read-out: HDAC Inhibition (IC50 μM) WC mouse cortical neurons.
Format: cell-based
Procedure: Primary neocortical cultures are established through the dissection of the neocortex from E17 embryos harvested from time-pregnant Balb/C mice. Following dissection, the neocortical tissue specimens undergo digestion by incubation at 37° C. for 10 minutes in dissection medium (1×HBSS/10 mM HEPES/1 mM Sodium Pyruvate) supplemented with (0.25%) Trypsin and (0.1%) DNase I. Digested tissue is washed and resuspended in plating medium (NeuroBasal/10% HS/0.5 mM L-Glutamine (Invitrogen Corporation)) for trituration. Additional plating medium is added, and the contents are passed over a 70 um cell-strainer. The cell-density is quantified using a hemacytometer, and dilutions are made to allow for the plating of 50000 cells/well/100 uL in 96-well PDL-coated plates. Plates are incubated for 4-5 hours in 37° C./5% CO2-incubator, after which time the entire volume is exchanged to feeding medium (NeuroBasal/2% B-27 Serum-free supplement/0.5 mM L-Glutamine/1% Penicillin-Streptomycin (Invitrogen Corporation)). The cultures undergo two 50% fresh feeding medium exchanges at 3 days in vitro (DIV3), and again at DIV7.
Compounds for testing are resuspended in dimethyl sulphoxide (DMSO), and further diluted in DMSO for a ten-point dose-response curve, with appropriate controls. Each master plate is assayed in triplicate. […] Three DIV9 culture plates are leveled to 50 uL/well, onto which each has overlaid 50 uL/well of the diluted daughter plate. The plates are returned to the 37° C./5% CO2-incubator for 16-18 hours.
The next step of the assay involves the exposure of a HDAC colorimetric substrate, comprising an acetylated lysine side chain, to the compound-treated neuronal cultures. Based on the ability of the compound to inhibit HDAC activity in the neuronal cultures, the substrate is deacetylated by HDACs, and subsequently sensitized. […] Compound-incubated culture plates are again leveled to 50 uL/well and 2 uL/well of 7.5 mM BOC-Lys (Ac)-AMC substrate is added and thoroughly mixed. Plates are returned to the 37° C./5% CO2-incubator for 1 hour.
The final addition to the culture plates entails treatment with a Fluor de Lys™-based developer (BIOMOL Research Laboratories, Inc.) to produce a fluorophore, which is analyzed using a spectrophotometer. The developer solution (1×Fluor de Lys™/1% NP-40/1 uM TSA in HDAC Buffer Solution) is prepared, and 50 uL/well is added to each of the wells of the culture plates. […] The plates are returned to the 37° C./5% CO2-incubator for 10-15 minutes, after which time, they are removed and set in the dark at room temperature for 5-10 minutes.
Primary neocortical cultures were established through the dissection of the neocortex from E17 embryos harvested from time-pregnant Balb/C mice. Following dissection, the neocortical tissue specimens underwent digestion by incubation at 37° C. for 10 minutes in dissection medium (1×HBSS/10 mM HEPES/1 mM Sodium Pyruvate) supplemented with (0.25%) Trypsin and (0.1%) DNase I. Digested tissue was washed and resuspended in plating medium (NeuroBasal/10% HS/0.5 mM L-Glutamine (Invitrogen Corporation)) for trituration. Additional plating medium was added, and the contents passed over a 70 um cell-strainer. The cell-density was quantified using a hemacytometer, and dilutions made to allow for the plating of 50000 cells/well/100 uL in 96-well PDL-coated plates. Plates were incubated for 4-5 hours in 37° C./5% CO2-incubator, after which time the entire volume was exchanged to feeding medium (NeuroBasal/2% B-27 Serum-free supplement/0.5 mM L-Glutamine/l % Penicillin-Streptomycin (Invitrogen Corporation)). The cultures underwent two 50% fresh feeding medium exchanges at 3 days in vitro (DIV3), and again at DIV7.
Compounds for testing were resuspended in dimethyl sulphoxide (DMSO), and further diluted in DMSO for a ten-point dose-response curve, with appropriate controls. Each master plate was assayed in triplicate.
In the case of `O=C(NO)c1ccc(N2C[C@@H]3C[C@H]2CN3c2nccc(C(F)(F)F)n2)cc1` [N-hydroxy-4-((1S,4S)-5-(4-(trifluoromethyl)pyrimidin-2-yl)-2,5-diazabicyclo[2.2.1]heptan-2-yl)benzamide], the IC50 is reported as 1 to 5 µM.

Same assay, conditions: whole-cell (WC), mouse cortical neurons; Table 10; read-out: HDAC Inhibition (IC50 μM) WC mouse cortical neurons
`O=C(NO)c1cnc(NC(c2ccccn2)c2ccccn2)nc1` [2-(dipyridin-2-ylmethylamino)-N-hydroxypyrimidine-5-carboxamide] showed an IC50 of under 1 µM.

Each compound was assayed against one or more of HDAC-1, HDAC-2, HDAC-3, HDAC-4, HDAC-5, HDAC-6, HDAC-7, HDAC-8, HDAC-9, HDAC-10 and HDAC-11 (assay: Inhibition of Histone Deacetylase Enzymatic Activity (Boc-Lys(Ac)-AMC substrate, Fluor-de-Lys developer)). Conditions: Table 8; read-out: HDAC Inhibition (IC50 μM) HDAC Enzyme.
Format: biochemical
Procedure: The following protocol is used to assay the compounds of the disclosure.
The mixture is pre-incubated for 5 minutes at room temperature. The reaction is started by bringing the temperature to 37° C. and adding 16 μl substrate. Total reaction volume is 50 μl.
In the Tables 8, 9 and 10, A≦0.05 μM; 0.05 μM<B≦0.1 μM; 0.1 μM<C≦1 μM; and 1 μM<D≦10 μM.
Compound `O=C(NO)c1ccc(C2=Nc3ccccc3N(CCN3CCOCC3)c3ccccc32)cc1` [(Z)-N-hydroxy-4-(5-(2-morpholinoethyl)-5H-dibenzo[b,e][1,4]diazepin-11-yl)benzamide] has an IC50 of 0.1 to 1 µM. With `CN(O)C(=O)c1ccc(C2=Nc3ccccc3N(C3CC3)c3ccccc32)cc1` [(Z)-4-(5-cyclopropyl-5H-dibenzo[b,e][1,4]diazepin-11-yl)-N-hydroxy-N-methylbenzamide] the IC50 was 1 to 10 µM. `O=C(NO)c1ccc2c(c1)N=C(c1ccncc1)c1ccccc1O2` [(Z)-N-hydroxy-11-(pyridin-4-yl)dibenzo[b,f][1,4]oxazepine-8-carboxamide] gave an IC50 of 0.1 to 1 µM. With `CN1CCN(C2=Nc3cc(C(=O)NO)ccc3Oc3ccccc32)CC1` the IC50 was 0.1 to 1 µM. `O=C(NO)c1ccc(C2=Nc3ccccc3N(CC3CC3)c3ncccc32)cc1` [(Z)-4-(11-(cyclopropylmethyl)-11H-benzo[b]pyrido[2,3-e][1,4]diazepin-5-yl)-N-hydroxybenzamide] showed an IC50 of 1 to 10 µM. `O=C(NO)c1ccc(C2=Nc3ccccc3Sc3ccccc32)cc1` [(Z)-4-(dibenzo[b,f][1,4]thiazepin-11-yl)-N-hydroxybenzamide] gave an IC50 of 0.1 to 1 µM.

Same assay, conditions: Table 10; read-out: HDAC Inhibition (IC50 μM) HDAC Enzyme
`CN1CCc2[nH]c3ccc(C(=O)NO)cc3c2C1` [N-hydroxy-2-methyl-2,3,4,5-tetrahydro-1H-pyrido[4,3-b]indole-8-carboxamide] was tested, and the IC50 was 1 to 10 µM. Work on `O=C(NO)c1cnc(N2C[C@H]3C[C@@]3(c3ccccc3)C2)nc1` [N-hydroxy-2-((1R,5S)-1-phenyl-3-azabicyclo[3.1.0]hexan-3-yl)pyrimidine-5-carboxamide] yielded an IC50 of 0.1 to 1 µM. Work on `O=C(NO)c1ccc(Cn2c3c(c4ccccc42)CCCCCC3)cc1` [4-((6,7,8,9,10,11-hexahydro-5H-cycloocta[b]indol-5-yl)methyl)-N-hydroxybenzamide] yielded an IC50 of 0.1 to 1 µM. Work on `O=C(NO)c1cccc(COC2c3ccccc3CCc3ccccc32)c1` yielded an IC50 of 0.1 to 1 µM. Compound `O=C(NO)c1cn2c(n1)sc1ccccc12` has an IC50 of 0.1 to 1 µM. In the case of `O=C(CN1c2ccccc2C=Cc2ccccc21)NO` [(Z)-2-(5H-dibenzo[b,f]azepin-5-yl)-N-hydroxyacetamide], the IC50 is reported as 1 to 10 µM. `O=C(NO)c1ccc(CN2Cc3ccccc3Oc3ccccc32)cc1` [4-(dibenzo[b,f][1,4]oxazepin-10(11H)-ylmethyl)-N-hydroxybenzamide] gave an IC50 of under 0.05 µM. With `O=C(NO)c1ccc(CN(c2ccccc2)c2ccccc2)cc1` [4-((diphenylamino)methyl)-N-hydroxybenzamide] the IC50 was 0.1 to 1 µM. `O=C(NO)c1cnc(N2C[C@H]3C[C@@]3(c3ccc(C(F)(F)F)cc3)C2)nc1` showed an IC50 of 0.1 to 1 µM. `O=C(NO)c1cccc(CN2c3ccccc3C=Cc3ccccc32)c1` [(Z)-3-((5H-dibenzo[b,f]azepin-5-yl)methyl)-N-hydroxybenzamide] showed an IC50 of 0.1 to 1 µM. For `O=C(NO)c1ccc(COC2c3ccccc3CCc3ccccc32)cc1`, the IC50 was 0.1 to 1 µM. `O=C(NO)c1ccc(OCCN2C(=O)c3ccccc3Oc3ccccc32)cc1Cl` showed an IC50 of 1 to 10 µM. Compound `O=C(NO)c1ccc(OCCN2C(=O)c3ccccc3Oc3ccccc32)cc1F` has an IC50 of 0.05 to 0.1 µM. `O=C1CN=C(c2ccc(C(=O)NO)cc2)c2cc(Br)sc2N1` [(Z)-4-(7-bromo-2-oxo-2,3-dihydro-1H-thieno[2,3-e][1,4]diazepin-5-yl)-N-hydroxybenzamide] gave an IC50 of 0.1 to 1 µM. For `O=C(NO)c1ccc(CNC2c3ccccc3COc3ccccc32)cc1` (stereo not drawn) [4-((6,11-dihydrodibenzo[b,e]oxepin-11-ylamino)methyl)-N-hydroxybenzamide], the IC50 was 0.1 to 1 µM. “(Z)-N-(5H-dibenzo[b,f]azepin-5-yl)methyl)benzyl)-N-hydroxyformamide” was tested, and the IC50 was 0.1 to 1 µM. Work on `O=C(NO)c1cnc(N2CCC[C@H]2c2nc3ccccc3[nH]2)nc1` [(S)-2-(2-(1H-benzo[d]imidazol-2-yl)pyrrolidin-1-yl)-N-hydroxypyrimidine-5-carboxamide] yielded an IC50 of 0.1 to 1 µM. Work on `O=C(C=C1c2ccccc2CCc2ccccc21)NO` yielded an IC50 of 1 to 10 µM. In the case of `O=C(NO)c1cc2c(cn1)[nH]c1ccccc12` [N-hydroxy-9H-pyrido[3,4-b]indole-3-carboxamide], the IC50 is reported as 1 to 10 µM. With `O=C(NO)c1ccc(CNC(c2ccccc2)c2ccccc2)cc1` [4-((benzhydrylamino)methyl)-N-hydroxybenzamide] the IC50 was under 0.05 µM. `O=C(C=C1c2ccccc2C=Cc2ccccc21)NO` was tested, and the IC50 was 0.1 to 1 µM. In the case of `O=C(NO)c1cccc(CNC2c3ccccc3CCc3ccccc32)c1`, the IC50 is reported as 0.1 to 1 µM. `O=C(NO)c1cccc(CN(c2ccccc2)c2ccccc2)c1` [3-((diphenylamino)methyl)-N-hydroxybenzamide] gave an IC50 of 1 to 10 µM. With `O=C(NO)c1cnc(N2C[C@H]3C[C@@]3(c3ccc(Cl)c(Cl)c3)C2)nc1` [2-((1R,5S)-1-(3,4-dichlorophenyl)-3-azabicyclo[3.1.0]hexan-3-yl)-N-hydroxypyrimidine-5-carboxamide] the IC50 was 0.1 to 1 µM. For `O=C(NO)c1cccc(CN2c3ccccc3Oc3ccccc32)c1` [3-((10H-phenoxazin-10-yl)methyl)-N-hydroxybenzamide], the IC50 was 1 to 10 µM. Work on `O=C(NO)c1ccc(Cn2c(-c3ccccc3)cc3ccccc32)cc1` [N-hydroxy-4-((2-phenyl-1H-indol-1-yl)methyl)benzamide] yielded an IC50 of 0.1 to 1 µM. `O=C(NO)c1cccc(CN2c3ccccc3Sc3ccccc32)c1` [3-((10H-phenothiazin-10-yl)methyl)-N-hydroxybenzamide] was tested, and the IC50 was 0.1 to 1 µM. Work on `O=C(NO)c1cnc(NC(c2ccc(F)cc2)c2ccc(F)cc2)nc1` [2-(bis(4-fluorophenyl)methylamino)-N-hydroxypyrimidine-5-carboxamide] yielded an IC50 of under 0.05 µM. Compound `O=C(NO)c1ccc(CN2c3ccccc3CCc3ccccc32)cc1` [4-((10,11-dihydro-5H-dibenzo[b,f]azepin-5-yl)methyl)-N-hydroxybenzamide] has an IC50 of under 0.05 µM. Work on `O=C(NO)c1cnc(N2C[C@H]3C[C@@]3(c3cccc(C(F)(F)F)c3)C2)nc1` yielded an IC50 of 0.1 to 1 µM. Compound `O=CN(O)CCCCCCN1C(=O)c2ccccc2Oc2ccccc21` [N-hydroxy-N-(6-(11-oxodibenzo[b,f][1,4]oxazepin-10(11H)-yl)hexyl)formamide] has an IC50 of under 0.05 µM. For `O=C(NO)c1cnc(N2C[C@@H]3C[C@]3(c3ccc(Cl)c(Cl)c3)C2)nc1` [2-((1S,5R)-1-(3,4-dichlorophenyl)-3-azabicyclo[3.1.0]hexan-3-yl)-N-hydroxypyrimidine-5-carboxamide], the IC50 was 0.1 to 1 µM. `O=C(NO)c1cnc(NC2c3ccccc3CCc3ccccc32)nc1` was tested, and the IC50 was under 0.05 µM. In the case of `O=C(CCCN1C(=O)c2cccnc2N(C2CC2)c2ccccc21)NO` [4-(11-cyclopropyl-5-oxo-5H-benzo[b]pyrido[2,3-e][1,4]diazepin-6(11H)-yl)-N-hydroxybutanamide], the IC50 is reported as 1 to 10 µM.
